Measured values from PubChem BioAssay AID1755 (Sanford-Burnham Center for Chemical Genomics, 2009).
Values joined by “and” are separate entries in the source; they are usually repeats but may differ in a detail not shown here. Equal values may be shown once. Active and inactive are the calls of the source. No rule for the calls is given here.

System: MDA-MB-435 TRAIL-induced apoptosis potentiation, viability
Assay: TRAIL apoptosis potentiation, viability loss, SAR follow-up, cell-based, MDA-MB-435, analog series (AID 1755)

Row | IC50 | SMILES
1 | 4.81 µM and 3.27 µM | CSc1nc(-c2ccc(C)cc2)nc(C(Cl)Cl)n1
2 | > 10 µM (inactive) | COc1cc(-c2ccccc2)[nH]c(=S)n1
3 | > 10 µM (inactive) | CCSc1nc(-c2ccccc2)cc(=O)[nH]1
4 | > 10 µM (inactive) | CC(Sc1nc(-c2ccccc2)cc(C(F)(F)F)n1)C(=O)N1CCCC1 (stereo not drawn)
5 | > 10 µM (inactive) | CSc1nc(-c2ccccc2)nc(-c2ccccc2OC(C)=O)n1
6 | > 10 µM (inactive) | CSc1nc(-c2ccccc2)nc(-c2ccccc2)n1
7 | > 10 µM (inactive) | CCSc1cc(N2CCCC2)nc(-c2ccc(Cl)cc2)n1
8 | > 10 µM (inactive) | CSc1nc(-c2ccccc2)nc(C(C)C)n1
